From the METLIN SMRT retention time set (Domingo-Almenara et al. 2019) come the findings set out here.

Each structure is given as a SMILES string.

This series is described as follows: gradient 5% acetonitrile 3 min, to 50% in 2 min, to 85% in 15 min, held 3 min, 100 µL/min. Conditions: column: Zorbax Extend-C18 2.1 x 50 mm; eluents: water / acetonitrile, 0.1% formic acid. The gist of the method: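 Pure standards were run in mixtures of ~100 molecules by HPLC coupled to a quadrupole time-of-flight mass spectrometer. The column was a Zorbax Extend-C18 (2.1 × 50 mm, 1.8 μm) at 100 μL/min, with water and acetonitrile each containing 0.1% formic acid, in positive and negative ionization mode. Dead and dwell volumes were 40 μL and 900 μL. Retention time was taken from computationally picked adduct peaks, each manually inspected, with data collected over 3 months.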
`Cc1cc(F)ccc1NS(=O)(=O)c1ccc2c(c1)C(=O)N(C)c1ncccc1O2` returned an RP-LC retention time of 924 s.

On to `O=C(CSc1nc2ccccc2c(=O)n1Cc1cccs1)Nc1ncn[nH]1`, for which the RP-LC retention time was 670 s.

In the case of `O=C(c1ccn[nH]1)N1CCC[C@H]1c1nc(C2CCOCC2)n[nH]1`, the RP-LC retention time is 558 s.

As for `Cc1ccsc1C(=O)N1CCN(c2ccc(=O)n(-c3cccc(Cl)c3)n2)CC1`, the RP-LC retention time stood at 853 s.

As for `COc1ccc(OC)c(-c2csc(-c3nnn(-c4ccc(C)c(C)c4)c3N)n2)c1`, the RP-LC retention time was 1230 s.

`Cc1cccc(N2CCN(C(=O)C3CCN(S(=O)(=O)c4cccc5nsnc45)CC3)CC2)c1C`: the RP-LC retention time came out at 1050 s.

The compound `O=C(C1CCCC1)N1CCC(c2noc(-c3ccccc3)n2)C1` (configuration not stated) registered an RP-LC retention time of 924 s.

Consider `Cc1ccc(C)c(-c2csc(Nc3ccccn3)n2)c1`, for which the RP-LC retention time is 821 s.

Compound `CCCn1cc(C(=O)NC2CCCC2)c2cccnc21` came in with an RP-LC retention time of 794 s.

Consider `COCCCNC(=O)c1cc2n(n1)CCCN(Cc1ccc(F)cc1)C2=O`, for which the RP-LC retention time is 697 s.

`CC(C)N1C(=O)c2cccnc2Sc2cc(NC(=O)C3CCCC3)ccc21` gave an RP-LC retention time of 860 s.

`Cc1c(C(=O)NCC2CC2)cnn1-c1cc(-c2nc(C(C)(C)C)no2)ccn1`: the RP-LC retention time amounted to 742 s.

Compound `Cc1ccccc1S(=O)(=O)N1[C@H]2CC[C@@H]1c1cnc(-c3ccccc3)nc1C2` came in with an RP-LC retention time of 1140 s.

As for `CCc1noc(NC(C)=O)c1-c1ccc(OC)c(S(=O)(=O)NCc2ccc(OC)cc2)c1`, the RP-LC retention time was 758 s.

The compound `O=C1CS(=O)C2(CCNCC2)N1Cc1cccc(F)c1` (configuration not stated) gave an RP-LC retention time of 566 s.

In the case of `CCc1ccc2[nH]c3c(c(=O)c2c1)CN(CC(=O)NCc1cccc(Cl)c1)CC3`, the RP-LC retention time is 642 s.

Take `Cc1cc(C)cc(NC(=O)C2CCN(C(=O)c3ncn4c3COC(c3ccc(F)cc3)C4)CC2)c1` (configuration not stated): the RP-LC retention time was 816 s.

Consider `CCn1ccc2c(cc(C(=O)Nc3ccc(OC)cc3OC)n2C)c1=O`, for which the RP-LC retention time was found to be 692 s.

`N#Cc1cccc(C(=O)N2CCCn3nc(-c4ccc(Cl)cc4)cc3C2)c1` came in with an RP-LC retention time of 933 s.

Regarding `CCOc1ccc(-c2noc(Cn3c(=O)n(Cc4ccccc4)c(=O)c4sccc43)n2)cc1OC`, the RP-LC retention time was determined as 1110 s.

`COc1ccc(CC(=O)N2CCCC2c2c(C)noc2C)cc1` (configuration not stated) showed an RP-LC retention time of 727 s.

`CCOCCCNC(=O)C(CC)n1nc(C)c2nn(-c3ccccc3)c(C)c2c1=O` (configuration not stated) gave an RP-LC retention time of 823 s.

`COc1ccc(-c2noc(Cn3ccn(-c4cc(C)cc(C)c4)c(=O)c3=O)n2)cc1OC` yielded an RP-LC retention time of 834 s.

`CCN1C(=O)COc2ccc(-c3csc(NC(=O)c4ccc(Br)cc4)n3)cc21` gave an RP-LC retention time of 1080 s.

Regarding `CN(C)C(=O)c1ccc2c(c1)n(Cc1ccc(F)cc1)c(=O)c1ccnn12`, the RP-LC retention time turned out to be 780 s.

`CCc1nc(N)n(CC(=O)NCc2ccc(F)cc2)c(=O)c1C` came in with an RP-LC retention time of 634 s.

In turn, `c1ccc(-c2nc(-c3ccnc(N4CCOCC4)c3)no2)nc1` came in with an RP-LC retention time of 665 s.

Take `CCc1nn(CC)c(=O)c2cc(S(=O)(=O)N3CCC(Cc4ccccc4)CC3)cn12`: the RP-LC retention time was 1140 s.

Consider `CCc1ccc(NC(=O)Cn2c(N3CCCCC3)nc(C)cc2=O)cc1`, for which the RP-LC retention time was 661 s.

For `COC(=O)Cn1c(C)cc(=O)c2cccc(F)c21`, the RP-LC retention time was determined as 549 s.

Consider `COc1ccc(OCc2noc(CNC(=O)c3oc4cc(OC)ccc4c3C)n2)cc1`, for which the RP-LC retention time stood at 925 s.

`COc1ccc(CNC(=O)CSc2ccc(N3CCCC(C(=O)NC4CC4)C3)nn2)cc1` (configuration not stated) returned an RP-LC retention time of 631 s.

Compound `CCOc1ccccc1-c1noc(Cn2c(=O)n(Cc3ccc(OC)cc3)c(=O)c3sccc32)n1` had an RP-LC retention time of 1080 s.

With `COc1ccc(C2C(C)C(=O)C(C)C(c3ccc(OC)cc3)N2N=O)cc1` (configuration not stated), the RP-LC retention time worked out at 1000 s.

For `CCOCCCNC(=O)C1CCN(S(C)(=O)=O)c2cc(Cl)ccc2O1` (configuration not stated), the RP-LC retention time came out at 783 s.

Turning to `O=C(COc1ccccc1)N1CCN(C(=O)c2nnn3c2COC(c2ccccc2)C3)CC1` (configuration not stated), the RP-LC retention time was 850 s.

With `Cn1cnc(S(=O)(=O)N2c3ccccc3CC2c2nnc(C3CCOCC3)o2)c1` (configuration not stated), the RP-LC retention time was 680 s.

Regarding `CC(=O)N1CCc2sc(C(=O)N3CCN(c4ccccc4F)CC3)cc2C1`, the RP-LC retention time came to 784 s.

Compound `O=C(NC1CC1)c1nc2ccccn2c1-c1ccc(Cl)cc1` came in with an RP-LC retention time of 802 s.

As for `Cc1noc(-c2ccnc(-n3cnc(C(=O)NC(C)C)c3)c2)n1`, the RP-LC retention time was found to be 712 s.

In turn, `CCOC(=O)C1CCC(CNC(=O)Nc2cc3c(cc2N2CCCC2)n(C)c(=O)n3C)CC1` (configuration not stated) had an RP-LC retention time of 638 s.

As for `COCCNC(=O)c1ccc2c(c1)N(Cc1ccc(C)cc1)C(=O)CO2`, the RP-LC retention time worked out at 748 s.

In turn, `Cc1cc(N2CCCC2)n2nc(CN3CCN(c4ccc(F)cc4)CC3)nc2n1` registered an RP-LC retention time of 634 s.

Consider `CCOC(=O)c1c(CN2CCOCC2)n(C)c2cc(Br)c(OC(C)=O)cc12`, for which the RP-LC retention time turned out to be 704 s.

For the compound `Nc1nc(N2CCN(c3ccccn3)CC2)ncc1C(=O)Nc1ccccc1`, the RP-LC retention time was 585 s.

`COC(=O)c1cc(S(=O)(=O)N2CCCC2C(=O)Nc2ccc(C#N)cc2)cn1C` (configuration not stated) displayed an RP-LC retention time of 841 s.

In the case of `CCn1ccc(NC(=O)Nc2cc(C)ccc2C)n1`, the RP-LC retention time turned out to be 869 s.

Regarding `O=S(=O)(NCc1cccnc1-c1ccc(F)cc1)c1cccc(Br)c1`, the RP-LC retention time came to 800 s.

In the case of `Cn1c(C2CCN(C(=O)Nc3cccc(Br)c3)CC2)cc(=O)n2nccc12`, the RP-LC retention time is 714 s.

`O=C(c1cc2ccccc2o1)N1CCC(CNS(=O)(=O)C2CC2)CC1` came in with an RP-LC retention time of 712 s.

On to `COc1cncc(C(=O)Nc2cc(F)ccc2Cl)c1`, for which the RP-LC retention time came out at 766 s.

As for `Cc1cc(=O)n(CC(=O)NCCC2=CCCCC2)c(N2CCCCC2)n1`, the RP-LC retention time came out at 734 s.

For the compound `O=C(C1CCN(c2cnc3nccnc3c2)CC1)N1CCN(c2ccccn2)CC1`, the RP-LC retention time was 570 s.

`O=c1ccc(-c2ccc3c(c2)OCO3)nn1CCc1nc(-c2ccncc2)no1` gave an RP-LC retention time of 730 s.

`CCCCOc1ccc(NC(=O)c2cc(=O)c3ccc(C)c(C)c3o2)c2cccnc12` returned an RP-LC retention time of 788 s.

As to `Cc1nccn1CC(=O)N1CCCn2cc(-c3ccccc3F)nc21`, the RP-LC retention time worked out at 644 s.

`O=C(NC1CCCCC1)C1CCN(C(=O)C2Sc3ccccc3NC2=O)CC1` (configuration not stated) came in with an RP-LC retention time of 732 s.

`O=C(Cn1nc2c(N3CCOCC3)nccn2c1=O)Nc1ccc(Br)cc1F` registered an RP-LC retention time of 779 s.

For `CC1CCCN(CC2CCN(S(=O)(=O)Cc3c(F)cccc3Cl)CC2)C1` (configuration not stated), the RP-LC retention time came out at 685 s.

The compound `Cc1c(-c2ccc(O)cc2)n(Cc2ccc(OCCN3CCCCCC3)cc2)c2ccc(O)cc12` gave an RP-LC retention time of 720 s.

`CC(C)(Oc1ccc(Cl)cc1)C(=O)NCc1nnnn1C1CCCCC1` displayed an RP-LC retention time of 945 s.

The compound `CC(C)c1noc(-c2cc(=O)n(CC(=O)Nc3ccc(F)c(Cl)c3)c3ccccc23)n1` displayed an RP-LC retention time of 1100 s.

In turn, `O=S(=O)(c1cccc(-c2nnc(-c3ccc(F)cc3)o2)c1)N1CCCC1` yielded an RP-LC retention time of 991 s.

`Cc1ccc(-n2c(=O)c3c(cc(C)n3C)n(CC(=O)Nc3ccc(F)cc3)c2=O)cc1`: the RP-LC retention time was 800 s.

With `CC(C)C(=O)NCc1csc(C2CCN(C(=O)C3(c4ccccc4)CC3)CC2)n1`, the RP-LC retention time was 740 s.

For the compound `Cc1cc(N2CCN(C)CC2)nc2ccc(NC(=O)NCc3ccco3)cc12`, the RP-LC retention time stood at 564 s.

For `CCOc1ccccc1CNC(=O)C1CCN(C(=O)C2Sc3ccccc3NC2=O)CC1` (configuration not stated), the RP-LC retention time amounted to 779 s.

In turn, `COc1ccc(OC)c(NC(=O)N2C[C@@H](F)C[C@H]2C(=O)N2CCCCC2)c1` came in with an RP-LC retention time of 720 s.

With `CO[C@H]1CN(C2CCN(S(=O)(=O)Cc3ccccc3)CC2)[C@H]1c1ccncc1`, the RP-LC retention time stood at 612 s.

Compound `COc1cc(NC(=O)c2sc(-c3cn(C(C)C)c4ncccc34)nc2C)cc(OC)c1` showed an RP-LC retention time of 1030 s.

With `CCC(=O)N1CCc2cc(CNS(=O)(=O)c3ccc(OC)c(OC)c3)ccc21`, the RP-LC retention time was found to be 747 s.

`O=C(CCC1CCN(c2cc(NC3CC3)ncn2)CC1)NCc1cc(F)ccc1F` had an RP-LC retention time of 666 s.
